Read-outs that look alike come from different tables or passages of the source.
Legend:
ATX [1] = tested on: ATX; parameters: method as in PMID 34788605; settings: TILs from melanoma patients and peripheral CD8+ T cells; cited from earlier work
CD8+ T cells = tested on: CD8+ T cells; parameters: method as in PMID 31231367; settings: cited from earlier work
LPAR5 [2] = target: T1, LPAR5 (Homo sapiens, UniProt Q9H1C0); test: Ca2+ mobilization in LPAR5 expressing B103 cells; format: cell-based; parameters: expressed in transfected cells; host or cells: B103 cells
T1 sequence (Q9H1C0 whole entry, species assumed): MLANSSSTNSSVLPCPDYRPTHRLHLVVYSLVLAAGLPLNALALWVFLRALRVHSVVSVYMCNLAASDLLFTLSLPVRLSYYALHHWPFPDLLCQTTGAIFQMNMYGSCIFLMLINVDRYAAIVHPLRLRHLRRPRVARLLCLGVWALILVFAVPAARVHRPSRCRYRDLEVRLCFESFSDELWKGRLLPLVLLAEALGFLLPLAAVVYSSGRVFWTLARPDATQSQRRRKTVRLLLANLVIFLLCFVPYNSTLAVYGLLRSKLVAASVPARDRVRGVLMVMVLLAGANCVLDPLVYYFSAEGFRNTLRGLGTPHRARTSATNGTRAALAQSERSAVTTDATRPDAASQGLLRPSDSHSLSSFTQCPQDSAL
Source text: (§1) As an example, inhibition of LPAR5 in distinct cell types, such as CD8^+ T cells could help boost its immunosurveillance activity against cancer and impede metastasis. There is currently no FDA-approved LPA receptor antagonist for cancer therapy. […] We obtained both TC-LPA5-4 and UA-02-085 and tested for LPAR5 antagonism in two independent assays: Ca^2+ mobilization and β-Arrestin recruitment. […] AGP is present in several tissues and biological fluids including tumor ascites, atherosclerotic plaques, aqueous humor of the eye, and in platelet rich plasma. Thus, alkyl-LPA might have multiple actions in the TME as well as the cancer cells. […] We included as a positive control, Amgen35, a compound originally discovered by AMGEN investigators to be a LPAR2 antagonist with an IC50 of 0.8 µM [136]. The AMGEN publication predated the discovery of the LPAR4-6. […] Amgen35 has also been reported to have off-target effects in vivo [136]. […] The other putative LPAR5 antagonist compound, AS2727638, reported by Astellas Pharma in Japan, has only been characterized at LPAR1-3 but not at the other LPAR with high homology of LPAR5 [121].

ATX [3] = target: ATX (Homo sapiens, UniProt Q13822); test: ATX activity, fluorescent FS-3 substrate assay; format: biochemical; settings: IC50 ± SD
LPAR5 [4] = target: T1, LPAR5; test: β-arrestin recruitment in LPAR5 expressing CHO-K1 cells; format: cell-based; parameters: expressed in transfected cells; settings: LPA-induced β-arrestin recruitment, IC50 ± SD, NE = No effect, listed as TC-LPA5-4
Source text: as §1

LPAR2 [5] = target: T2, LPAR2 (Homo sapiens, UniProt Q9HBW0); parameters: method as in PMID 9525886; settings: Jurkat T cells, LPAR2 plus SRE-driven luciferase reporter; cited from earlier work
T2 sequence (Q9HBW0 whole entry, species assumed): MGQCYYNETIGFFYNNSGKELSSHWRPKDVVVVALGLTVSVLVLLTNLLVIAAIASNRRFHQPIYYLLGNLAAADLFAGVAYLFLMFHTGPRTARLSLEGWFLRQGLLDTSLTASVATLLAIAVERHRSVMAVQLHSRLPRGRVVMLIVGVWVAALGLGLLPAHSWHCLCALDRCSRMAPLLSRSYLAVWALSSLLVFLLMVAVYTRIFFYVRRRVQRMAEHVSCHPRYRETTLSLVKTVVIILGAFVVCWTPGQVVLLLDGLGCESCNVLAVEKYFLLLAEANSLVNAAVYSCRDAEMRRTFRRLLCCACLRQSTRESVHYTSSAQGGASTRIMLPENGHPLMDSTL

Jurkat cell line = tested on: Jurkat cell line; parameters: method as in PMID 7775587; settings: cotreatment with PMA compared to PMA alone; cited from earlier work
lymphocyte = tested on: lymphocyte; parameters: method as in PMID 11024010, PMID 11160288; settings: bell shape dose-response curve dropping off above 1 µM; cited from earlier work
LPAR2 [6] = target: T2, LPAR2; parameters: method as in PMID 11160288; settings: LPA 10^−9–10^−6 M, anti-LPAR2 MAb 30–300 ng/mL; cited from earlier work
LPAR1 [7] = tested on: LPAR1; parameters: method as in PMID 11160288; settings: cited from earlier work
LPAR1 [8] = tested on: LPAR1; parameters: method as in PMID 9525886; settings: Jurkat T cells, LPAR1 plus SRE-driven luciferase reporter; cited from earlier work
[9] = parameters: method as in PMID 15172836; settings: cited from earlier work

Compound: C[C@H](NC(=O)CCc1nc2cccnc2n1Cc1ccc(OC(F)(F)F)cc1)c1ccc(Cl)cc1 [IOA-289]
- effect of conditioned media from ATX-expressing tumor cells on T cell migration in presence of ATX inhibitor (ATX [1]): failed to inhibit the migration of T cells

Compound: CCCCCCCCCCCCCCCCCCOP(O)(O)=S [OTP, octadecyl thiophosphate]
- in vitro tumor cell killing function (CD8+ T cells; mouse and human CD8+ T cells): decreased in vitro tumor cell killing function
- granule exocytosis (CD8+ T cells; stimulation of CD8+ T cells): impaired granule exocytosis

Compound: O=C(CCN1CCN(C(=O)OCc2cc(Cl)cc(Cl)c2)CC1)c1ccc2[nH]c(=O)oc2c1 [PF-8380]
- effect of conditioned media from ATX-expressing tumor cells on T cell migration in presence of ATX inhibitor (ATX [1]): failed to inhibit the migration of T cells

Compound: COc1cccc(-n2nc(C(=O)O)cc2-c2ccc(C3CCCCC3)c(Cl)c2)c1 [TC-LPA-5]
- LPAR5 IC50 (Ca^2+ Mobilization) (LPAR5 [2]; LPA-induced Ca2+ mobilization, LPAR5 expressing B103 cells, IC50 ± SD, NE = No effect, listed as TC-LPA5-4): inactive
- Inhibition of AGP-induced Ca^2+ mobilization (LPAR5 [2]; agonist alkyl glycerophosphate (AGP), unpublished): failed to inhibit
- IC50 (ATX [3]): 7.1 ± 0.6 µM
- LPAR5 IC50 (β-arrestin) (LPAR5 [4]): inactive

Compound: lysophosphatidic acid [LPA]
- LPA-dependent luciferase expression (LPAR2 [5]): 20 fold over control
- increase in IL-2 secretion (Jurkat cell line): five-fold
- concentration of maximal efficiency in modulating lymphocyte responses (lymphocyte): 10^−10 to 10^−8 M
- transmigration of LPAR2 Jurkat transfectants (LPAR2 [6]): stimulated the transmigration
- migratory response in LPAR1 Jurkat transfectants (LPAR1 [7]): neither LPA nor the anti-LPAR1 MAb induced a migratory response
- LPA-dependent luciferase expression (LPAR1 [8]): 5 fold over control
- critical micellar concentration ([9]; acyl group myristoyl): 1.850 mM
- critical micellar concentration ([9]; acyl group oleoyl): 0.346 mM
- critical micellar concentration ([9]; acyl group palmitoyl): 0.540 mM
- critical micellar concentration ([9]; acyl group stearoyl): 0.082 mM

— publication PMC7281403, “Regulation of Tumor Immunity by Lysophosphatidic Acid” (Cancers, 2020)
